Assay results from ChEMBL document CHEMBL1201862, “PubChem BioAssay data set” (2004).
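Growth conditions: 96-well plates. Treatment: test compound, 48 hours, 5 concentrations. Analysis: linear interpolation between bracketing concentrations; unreached endpoints set to highest concentration. GI50 = concentration required for 50% inhibition of growth.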 The source made the active and inactive calls. Cut-off read from the data, not from the text of the source: active = GI50 up to about 1.1 µM and inactive = higher.

Assays:
Experiment in all cases: inhibition of tumour cell growth, NCI panel, 48 h
MCF7 = tested on: MCF7
Hs-578T = tested on: Hs-578T
MDA-MB-231 = tested on: MDA-MB-231
SW-620 = tested on: SW-620
IGROV-1 = tested on: IGROV-1
UACC-257 = tested on: UACC-257
OVCAR-5 = tested on: OVCAR-5
K562 = tested on: K562
CAKI-1 = tested on: CAKI-1
SR = tested on: SR
M14 = tested on: M14
SF-268 = tested on: SF-268
SK-MEL-5 = tested on: SK-MEL-5
PC-3 = tested on: PC-3
HOP-62 = tested on: HOP-62
SK-MEL-28 = tested on: SK-MEL-28
A549 = tested on: A549
NCI-H522 = tested on: NCI-H522
HCC 2998 = tested on: HCC 2998

| SMILES | GI50 (MCF7) | GI50 (Hs-578T) | GI50 (MDA-MB-231) | GI50 (SW-620) | GI50 (IGROV-1) | GI50 (UACC-257) | GI50 (OVCAR-5) | GI50 (K562) | GI50 (CAKI-1) | GI50 (SR) | GI50 (M14) | GI50 (SF-268) | GI50 (SK-MEL-5) | GI50 (PC-3) | GI50 (HOP-62) | GI50 (SK-MEL-28) | GI50 (A549) | GI50 (NCI-H522) | GI50 (HCC 2998) |
| --- | --- | --- | --- | --- | --- | --- | --- | --- | --- | --- | --- | --- | --- | --- | --- | --- | --- | --- | --- |
| COc1ccc(/C=N/c2c(O)ccc3ccccc23)cc1OC | > 100 µM (inactive) | 4.36 µM (inactive) | 63.7 µM (inactive) | > 100 µM (inactive) | 2.81 µM (inactive) | 80.5 µM (inactive) | > 100 µM (inactive) | 47.1 µM (inactive) | 63.2 µM (inactive) | > 100 µM (inactive) | 74.5 µM (inactive) | 19.4 µM (inactive) | 56.2 µM (inactive) | > 100 µM (inactive) | 92 µM (inactive) | > 100 µM (inactive) | 54.6 µM (inactive) | 15.6 µM (inactive) | > 100 µM (inactive) |
| O=C(O)c1ccc(NCc2nc3cc4ccccc4cc3[nH]2)cc1 | 2.81 µM (inactive) | > 100 µM (inactive) | > 100 µM (inactive) | > 100 µM (inactive) | > 100 µM (inactive) | 2.63 µM (inactive) | > 100 µM (inactive) | > 100 µM (inactive) | > 100 µM (inactive) | > 100 µM (inactive) | > 100 µM (inactive) | > 100 µM (inactive) | > 21.4 µM (inactive) | > 100 µM (inactive) | > 100 µM (inactive) | 5.21 µM (inactive) | > 100 µM (inactive) | > 100 µM (inactive) | 87.9 µM (inactive) |
| C=C(CCC(C(=O)O)C1CCC2(C)C3=C(CCC12C)C1(C)CCC(O)C(C)(C)C1CC3)C(C)C (stereo not drawn) | 60.7 µM (inactive) | 77.8 µM (inactive) | 71 µM (inactive) | 50.9 µM (inactive) | 22.3 µM (inactive) | 97.5 µM (inactive) | > 100 µM (inactive) | 14.2 µM (inactive) | > 100 µM (inactive) | 12.1 µM (inactive) | 40.8 µM (inactive) | 34.4 µM (inactive) | 33.7 µM (inactive) | 77.8 µM (inactive) | 8.91 µM (inactive) | 33.3 µM (inactive) | 17.1 µM (inactive) | 16.6 µM (inactive) | 81.7 µM (inactive) |
| CC1=NN(C(=O)CC(=O)Nc2ccccc2C)C(=O)C1/N=N\c1ccc(S(=O)(=O)c2ccc(/N=N/C3C(=O)N(C(=O)CC(=O)Nc4ccccc4C)N=C3C)cc2)cc1 (stereo not drawn) | > 100 µM (inactive) | 85.9 µM (inactive) | > 100 µM (inactive) | > 10 µM (inactive) | 68.9 µM (inactive) | > 100 µM (inactive) | > 100 µM (inactive) | > 100 µM (inactive) | > 100 µM (inactive) | > 100 µM (inactive) | > 100 µM (inactive) | > 100 µM (inactive) | 62.2 µM (inactive) | > 100 µM (inactive) | > 100 µM (inactive) | > 100 µM (inactive) | > 100 µM (inactive) | 46 µM (inactive) | > 100 µM (inactive) |
| O=c1c2nc3ccccc3c(=O)n2ncn1-c1ccccc1Cl | > 100 µM (inactive) | > 100 µM (inactive) | > 100 µM (inactive) | > 100 µM (inactive) | > 100 µM (inactive) | > 100 µM (inactive) | > 100 µM (inactive) | > 100 µM (inactive) | > 100 µM (inactive) | > 100 µM (inactive) | > 100 µM (inactive) | > 100 µM (inactive) | > 100 µM (inactive) | > 100 µM (inactive) | > 100 µM (inactive) | > 100 µM (inactive) | > 100 µM (inactive) | > 100 µM (inactive) | > 100 µM (inactive) |
| O=[N+]([O-])c1ccc(/N=N\c2c(O)c(S(=O)(=O)O)cc3cc(S(=O)(=O)O)ccc23)cc1 | > 100 µM (inactive) | > 100 µM (inactive) | > 100 µM (inactive) | > 100 µM (inactive) | > 100 µM (inactive) | > 100 µM (inactive) | > 100 µM (inactive) | > 100 µM (inactive) | > 100 µM (inactive) | > 100 µM (inactive) | > 100 µM (inactive) | – | > 100 µM (inactive) | > 100 µM (inactive) | 88.5 µM (inactive) | > 100 µM (inactive) | > 100 µM (inactive) | > 100 µM (inactive) | > 100 µM (inactive) |
| Oc1c2cccc1Cc1cccc3c1OCCOCCOCCOCCOc1c(cccc1Cc1cccc(c1O)C3)C2 | > 100 µM (inactive) | 18.4 µM (inactive) | 89.7 µM (inactive) | > 100 µM (inactive) | > 100 µM (inactive) | 66.2 µM (inactive) | > 100 µM (inactive) | > 100 µM (inactive) | > 100 µM (inactive) | 2.06 µM (inactive) | > 100 µM (inactive) | > 100 µM (inactive) | > 100 µM (inactive) | 17.1 µM (inactive) | > 100 µM (inactive) | > 100 µM (inactive) | > 100 µM (inactive) | 18.5 µM (inactive) | > 100 µM (inactive) |
| C/C(=N\NC(=S)N1CCCC1)c1nc2cccnc2[nH]1 | 0.33 µM (active) | 13.2 µM (inactive) | 16.5 µM (inactive) | 1.22 µM (inactive) | 0.354 µM (active) | 0.289 µM (active) | 0.457 µM (active) | 0.349 µM (active) | 0.37 µM (active) | 0.202 µM (active) | 0.357 µM (active) | 0.185 µM (active) | 0.217 µM (active) | 0.355 µM (active) | 0.356 µM (active) | 0.349 µM (active) | 0.223 µM (active) | 11.1 µM (inactive) | 19.3 µM (inactive) |
| CN(C)CCCN1CCC2(CCC(C(C)(C)C)CC2)CC1 | 1.65 µM (inactive) | 1.89 µM (inactive) | 1.91 µM (inactive) | 2.4 µM (inactive) | 4.01 µM (inactive) | 1.41 µM (inactive) | 3.08 µM (inactive) | 0.266 µM (active) | 2.72 µM (inactive) | 1.42 µM (inactive) | 1.85 µM (inactive) | 2.32 µM (inactive) | 1.61 µM (inactive) | 2.52 µM (inactive) | 2.15 µM (inactive) | 1.77 µM (inactive) | 3.27 µM (inactive) | 2.49 µM (inactive) | 0.21 µM (active) |
| COC(=O)C1Cc2ccc3c(c2C1=O)CCCC3 (stereo not drawn) | 73.6 µM (inactive) | > 100 µM (inactive) | 83 µM (inactive) | 86.5 µM (inactive) | > 100 µM (inactive) | > 100 µM (inactive) | > 100 µM (inactive) | 22.2 µM (inactive) | > 100 µM (inactive) | 26.7 µM (inactive) | > 100 µM (inactive) | > 100 µM (inactive) | 68.2 µM (inactive) | 26.2 µM (inactive) | 89.7 µM (inactive) | > 100 µM (inactive) | > 100 µM (inactive) | > 100 µM (inactive) | > 100 µM (inactive) |
| Cc1ccc2c(O)cc(-c3ccc(Cl)s3)nc2n1 | 0.422 µM (active) | 1.62 µM (inactive) | 5.89 µM (inactive) | 0.407 µM (active) | 0.564 µM (active) | 5.68 µM (inactive) | 2.75 µM (inactive) | 0.728 µM (active) | 3.24 µM (inactive) | 0.15 µM (active) | 0.516 µM (active) | 4.1 µM (inactive) | 0.391 µM (active) | 1.57 µM (inactive) | 2.31 µM (inactive) | 0.665 µM (active) | 1.14 µM (inactive) | 0.502 µM (active) | 1.34 µM (inactive) |
| O=C1OC2C=CCC1C2 (stereo not drawn) | > 100 µM (inactive) | > 100 µM (inactive) | > 100 µM (inactive) | > 100 µM (inactive) | > 100 µM (inactive) | > 100 µM (inactive) | > 100 µM (inactive) | > 100 µM (inactive) | > 100 µM (inactive) | > 100 µM (inactive) | > 100 µM (inactive) | > 100 µM (inactive) | > 100 µM (inactive) | > 100 µM (inactive) | > 100 µM (inactive) | > 100 µM (inactive) | > 100 µM (inactive) | > 100 µM (inactive) | > 100 µM (inactive) |
| O=[N+]([O-])c1ccc(-n2nc3ccc4c(no[n+]4[O-])c3n2)cc1 | 82 µM (inactive) | > 100 µM (inactive) | > 100 µM (inactive) | > 100 µM (inactive) | > 100 µM (inactive) | > 100 µM (inactive) | > 100 µM (inactive) | > 100 µM (inactive) | > 100 µM (inactive) | > 100 µM (inactive) | > 100 µM (inactive) | > 100 µM (inactive) | 80.2 µM (inactive) | 5.55 µM (inactive) | 35.2 µM (inactive) | > 100 µM (inactive) | 12.4 µM (inactive) | > 100 µM (inactive) | > 100 µM (inactive) |
| CCCCCCCCCCCOCCC1C(C(C)OCCN2CCCC2)OC2OC(C)(C)OC21 (stereo not drawn) | 2.65 µM (inactive) | 2.68 µM (inactive) | 1.85 µM (inactive) | 1.78 µM (inactive) | 2.42 µM (inactive) | 1.98 µM (inactive) | 3.67 µM (inactive) | 2.25 µM (inactive) | 2.4 µM (inactive) | 0.46 µM (active) | 0.869 µM (active) | 4.59 µM (inactive) | 1.82 µM (inactive) | 1.97 µM (inactive) | 1.91 µM (inactive) | 1.64 µM (inactive) | 4.82 µM (inactive) | 0.853 µM (active) | 1.69 µM (inactive) |
| O=C1CSC(c2cccc(Oc3ccccc3)c2)N1c1cc(Cl)ccc1Cl (stereo not drawn) | 6.3 µM (inactive) | 29.7 µM (inactive) | 20.7 µM (inactive) | 22.3 µM (inactive) | – | 22.7 µM (inactive) | 27.7 µM (inactive) | 19.4 µM (inactive) | 22.5 µM (inactive) | 14.9 µM (inactive) | 22.2 µM (inactive) | 19.7 µM (inactive) | 16.5 µM (inactive) | 22.6 µM (inactive) | 21.9 µM (inactive) | 29.5 µM (inactive) | 48 µM (inactive) | 20.9 µM (inactive) | 14 µM (inactive) |
